Several values for one entry are separate records, joined by “and”; a condition that tells them apart may be missing. Identical values can stand only once.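 Exposure lasted 48 hours, with cells grown in 96-well plates and compounds tested at five concentrations. Here, GI50 denotes the concentration required for 50% inhibition of growth. TGI: concentration producing complete growth inhibition.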
These compounds were tested on MDA-MB-468 breast (assay: NCI anticancer screen, dose series, 48 h).
With `COc1ccc([C@@H]2[C@@H](Oc3ccccc3)C(=O)N2c2cc(OC)c(OC)c(OC)c2)cc1F` the GI50 was 111 nM and the TGI was > 100000 nM.
In the case of `COc1cc(/C=C/C(=O)c2nc3cc(F)ccc3nc2C)cc(OC)c1OC`, the GI50 is reported as 2750 nM and the TGI is reported as > 100000 nM.
`COc1cc(/C=C/c2cc(/C=C/c3ccc(O)c(OC)c3)n(C(=O)Nc3ccc(C)cc3)n2)ccc1O` showed a GI50 of 301 nM and a TGI of 1710 nM.
In the case of `CCN1CCN(c2ccc(NC(=O)Nc3ccc4c(ccn4-c4ccnc(C(=O)NC)c4)c3)cc2C(F)(F)F)CC1`, the GI50 is reported as > 14300 nM and the TGI is reported as > 14300 nM.
With `CN(C)[C@@H]1C(=O)C(C(=O)NCc2nc3[nH]cnc(=S)c3[nH]2)=C(O)[C@@]2(O)C(=O)C3=C(O)c4c(O)cccc4[C@@](C)(O)[C@H]3C[C@@H]12` the GI50 was 955 nM and the TGI was > 100000 nM.
`Cc1ccc(-c2nc([P+](c3ccccc3)(c3ccccc3)c3ccccc3)c(N3CCOCC3)o2)cc1` was tested, and the GI50 was 248 nM and the TGI was 870 nM.
Compound `O=C1NC(=NCc2cccs2)O/C1=C\c1ccc2ncccc2c1` has a GI50 of 3410 nM and a TGI of 13900 nM.
For `O=c1c(Oc2ccc(F)cc2F)cc2cnc(NC3CCOCC3)nc2n1C1CC1`, the GI50 was > 25000 nM and the TGI was > 25000 nM.
`COc1ccc(Cn2c(Br)c3c(c2-c2cc(OC)c(OC)c(OC)c2)CCc2sc(N)nc2-3)cc1` gave a GI50 of 3130 nM and a TGI of 41900 nM.
With `O=C(CCN1CCOCC1)Nc1ccc(Cn2nnc3c2C(=O)c2nnn(Cc4ccc(NC(=O)CCN5CCOCC5)cc4)c2C3=O)cc1` the GI50 was 257 nM and the TGI was 627 nM.
Work on `CC(C)c1ccc2c(c1)CCC1C2CCCC1(C)NCc1ccccc1` (configuration not stated) yielded a GI50 of 1900 nM and a TGI of 4160 nM.
For `O=C1C[C@@H]2OCC=C3C[N+]4([O-])CC[C@]56c7ccccc7N1[C@H]5[C@H]2[C@H]3C[C@@H]64` (some centres not stated), the GI50 was > 100000 nM and the TGI was > 100000 nM.
`O=C1[C@H](Cc2ccc(O)cc2)N2C(=O)CCN(C(=O)NCc3ccccc3)[C@H]2CN1Cc1cccc2ccccc12` was tested, and the GI50 was 5660 nM and the TGI was 23200 nM.
Compound `O=[N+]([O-])c1ccc(N/N=C\c2cc(Br)ccc2O)nc1` has a GI50 of 1710 nM and a TGI of 4320 nM.
`COc1ccc(-c2c(Nc3ccccn3)nc3c(C4=CCCCC4)c(-c4ccccc4)[nH]n3c2=O)cc1` gave a GI50 of 1910 nM and a TGI of 8650 nM.
`Oc1ccc(CSc2nnc(-c3ccccc3)n2-c2ccccc2)c2cccnc12` showed a GI50 of 497 nM and a TGI of 6820 nM.
With `O=S(=O)(Nc1ccccc1)c1ccc(C2CC3(Cl)C(Cl)=C(Cl)C2(Cl)C3(Cl)Cl)cc1` (configuration not stated) the GI50 was 2640 nM and the TGI was 7860 nM.
`OCc1ccc(N2CCc3ccc(F)cc3C2)cc1Cl` was tested, and the GI50 was < 12.9 nM and the TGI was 35.1 nM.
For `Nc1cc(C(F)(F)F)c(-c2nc(N3CCOCC3)nc(N3CCOCC3)n2)cn1`, the GI50 was 180 nM and the TGI was 897 nM.
In the case of `CC1=C(C(=O)Nc2ccc3[nH]ncc3c2)C(c2ccc(F)cc2)N=C(c2ccc(C(F)(F)F)nc2)N1` (configuration not stated), the GI50 is reported as 5650 nM and the TGI is reported as 15500 nM.
`CNS(=O)(=O)Nc1nccc(Cc2c(C)c3ccc(Oc4ncccn4)cc3oc2=O)c1F` was tested, and the GI50 was 3460 nM and > 5440 nM and the TGI was 82600 nM and > 10000 nM.
For `COc1ccc(-n2c(=O)c3ccccc3n(Cc3ccc(C(=O)NO)cc3)c2=O)cc1`, the GI50 was 1440 nM and the TGI was 3490 nM.
`COc1cc(NC(=O)COc2ccccc2)c(C(N)=O)cc1OC` was tested, and the GI50 was 848 nM and the TGI was 72100 nM.
Compound `CN(C)CCCC1(c2ccc(F)cc2)OCc2cc(-c3csc4ccccc34)ccc21` (configuration not stated) has a GI50 of 1540 nM and a TGI of 3120 nM.
In the case of `COc1ccccc1CNCCCN1C(=O)c2ccc3c4c(ccc(c24)C1=O)C(=O)N(CCCNCc1ccccc1OC)C3=O`, the GI50 is reported as 138 nM and the TGI is reported as 288 nM.
For `CCOC(=O)C#Cc1c(C(=O)OCC)nnn1[C@@H]1O[C@H](COC)[C@@H](OC)[C@H]1OC`, the GI50 was 2130 nM and the TGI was 5430 nM.
For `Oc1ccc(CSc2nnc(-c3ccc(Oc4ccccc4)cc3)o2)c2cccnc12`, the GI50 was 1760 nM and the TGI was > 100000 nM.
For `O=C(NO)c1ccc(CNc2cccc3nc(C4CC4)n(-c4ccccc4)c(=O)c23)cc1`, the GI50 was 1880 nM and the TGI was 5160 nM.
For `CNCc1cccc2c1OCCOCCOCCNS(=O)(=O)c1ccc(cc1)-c1cnc(N)c(n1)C(=O)N2`, the GI50 was 1510 nM and the TGI was 3250 nM.
With `CCN1CCN(CC(=O)Nc2nc3ccc(NCc4ccc(Br)cc4)cc3s2)CC1` the GI50 was 1740 nM and the TGI was 4510 nM.
Compound `O=C(O)CSc1cc(NS(=O)(=O)c2ccc(Br)cc2)c2ccccc2c1O` has a GI50 of 1870 nM and a TGI of 4340 nM.
`FC(F)(F)c1cccc(CNC2CCN(CCc3ccccc3)CC2)c1` gave a GI50 of 13500 nM and a TGI of 30200 nM.
`CN1CCN(C(=O)/C=C/c2ccc([N+](=O)[O-])o2)CC1` gave a GI50 of 12100 nM and a TGI of 28500 nM.
`C/C(=C\c1csc(C)n1)[C@@H]1C[C@@H]2O[C@]2(C)CCC[C@H](C)[C@H](O)[C@@H](C)C(=O)C(C)(C)[C@@H](O)CC(=O)N1` was tested, and the GI50 was 0.233 nM and the TGI was 0.58 nM.
In the case of `CC[C@]12C=CCN3CC[C@@]4(c5ccc(OC)cc5N(C)[C@H]4[C@@](O)(C(=O)OC)[C@@H]1OC(=O)CCCN1CCN(CCCC(=O)O[C@@H]4[C@]5(CC)C=CCN6CC[C@@]7(c8ccc(OC)cc8N(C)[C@H]7[C@@]4(O)C(=O)OC)[C@@H]65)CC1)[C@@H]32`, the GI50 is reported as 252 nM and the TGI is reported as 730 nM.
Compound `N#C[Se]CCN1C(=O)c2ccccc2C1=O` has a GI50 of 2010 nM and a TGI of 6990 nM.
For `CCN(CC)CCn1c2ccc(O)cc2c2sc3cc(OC)ccc3c(=O)c21`, the GI50 was 1540 nM and the TGI was 3000 nM.
With `CN1CCN(c2ccc(NC(=O)Nc3ccc4c(ccn4-c4cccc(C(N)=O)n4)c3)cc2C(F)(F)F)CC1` the GI50 was 4300 nM and the TGI was 12100 nM.
`Cc1cccc(Oc2ccc(Nc3ncnc4ccc(NC(=O)CN(C)C)cc34)cc2Cl)c1` gave a GI50 of 180 nM and a TGI of 1380 nM.
`CN(C)c1ccc(/C=N/N=C(\C#N)[S][Sn]([Cl])([c]2ccccc2)[c]2ccccc2)cc1` gave a GI50 of 480 nM and a TGI of 2000 nM.
`Oc1c(Br)cc(Cl)cc1C(c1cc(Cl)cc(Br)c1O)C(Cl)(Cl)Cl` was tested, and the GI50 was 2200 nM and the TGI was 7250 nM.
